Reference: patent publication EP1247803A2, “Indolinone compounds suitable for modulation of protein kinases” (Sugen, Inc., priority 1996, dated 1998)

Biological target: T1, FLK-1 receptor (Mus musculus, UniProt P35918)
T1 construct: expressed in transfected cells; host or cells: NIH3T3 C7#3
Assay: FLK-1 ELISA (kinase activity of the FLK-1 receptor in FLK-1/NIH3T3 cells, VEGF stimulated)
Type: cell-based
Procedure, shortened: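 NIH3T3 C7#3 cells expressing FLK-1 were seeded at 25.000 cells/well, serum-starved overnight in 0.1% FBS, then treated with compound for two hours at 37°C (final DMSO 0.5%) before VEGF stimulation. Receptor was captured on anti-rabbit IgG-coated ELISA plates bearing affinity-purified anti-FLK-1 antiserum.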

T1 sequence (P35918 20-1345): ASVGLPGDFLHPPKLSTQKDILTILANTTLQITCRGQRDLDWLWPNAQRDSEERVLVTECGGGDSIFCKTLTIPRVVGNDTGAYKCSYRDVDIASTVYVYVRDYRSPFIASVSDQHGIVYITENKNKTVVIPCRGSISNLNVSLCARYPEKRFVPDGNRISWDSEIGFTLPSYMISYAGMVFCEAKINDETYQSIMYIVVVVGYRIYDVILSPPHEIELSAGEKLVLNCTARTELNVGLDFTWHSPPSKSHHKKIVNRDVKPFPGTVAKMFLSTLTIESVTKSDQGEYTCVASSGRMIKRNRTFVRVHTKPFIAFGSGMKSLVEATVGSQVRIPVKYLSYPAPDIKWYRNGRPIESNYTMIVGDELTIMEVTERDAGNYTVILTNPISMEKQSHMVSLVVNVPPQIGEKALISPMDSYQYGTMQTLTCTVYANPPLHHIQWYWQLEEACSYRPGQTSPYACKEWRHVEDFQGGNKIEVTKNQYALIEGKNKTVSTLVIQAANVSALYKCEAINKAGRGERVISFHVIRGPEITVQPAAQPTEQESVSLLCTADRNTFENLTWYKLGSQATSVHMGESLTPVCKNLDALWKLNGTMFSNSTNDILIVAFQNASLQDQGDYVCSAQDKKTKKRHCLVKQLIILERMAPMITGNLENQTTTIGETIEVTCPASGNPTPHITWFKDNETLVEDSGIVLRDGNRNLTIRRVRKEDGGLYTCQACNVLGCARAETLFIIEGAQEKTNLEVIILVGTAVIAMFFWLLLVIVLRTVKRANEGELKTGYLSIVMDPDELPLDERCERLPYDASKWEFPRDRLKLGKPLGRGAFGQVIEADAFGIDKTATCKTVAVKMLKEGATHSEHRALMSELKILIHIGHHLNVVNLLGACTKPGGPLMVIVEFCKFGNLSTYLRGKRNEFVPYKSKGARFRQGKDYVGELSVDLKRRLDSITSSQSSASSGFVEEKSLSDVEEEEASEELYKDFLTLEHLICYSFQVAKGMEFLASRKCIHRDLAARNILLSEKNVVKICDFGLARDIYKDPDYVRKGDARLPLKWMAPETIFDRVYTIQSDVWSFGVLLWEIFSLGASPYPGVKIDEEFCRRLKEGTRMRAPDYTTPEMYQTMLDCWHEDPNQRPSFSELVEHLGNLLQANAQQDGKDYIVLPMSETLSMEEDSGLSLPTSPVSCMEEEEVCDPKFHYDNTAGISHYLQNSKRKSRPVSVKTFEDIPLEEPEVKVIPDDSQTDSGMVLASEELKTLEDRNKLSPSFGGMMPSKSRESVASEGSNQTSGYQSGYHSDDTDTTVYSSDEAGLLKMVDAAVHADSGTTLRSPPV

Compound	Fik Kinase %Inhibition [%]
N#Cc1ccc(C=C2C(=O)Nc3ccc(S(=O)(=O)Nc4ccc(C(F)(F)F)cc4)cc32)cc1 [10727/E09]	9.3
O=C(O)COc1ccccc1C=C1C(=O)Nc2c(Br)cc(Br)cc21 [10728/A10]	-16.3
O=C1Nc2ccc(I)cc2C1=Cc1c(F)cccc1C(F)(F)F [10728/B09]	1.7
CNS(=O)(=O)c1ccc2c(c1)C(=Cc1cccc(OC)c1OC)C(=O)N2 [10727/D11]	10.5
COc1cc(N(C)C)ccc1C=C1C(=O)Nc2ccc(Br)c(C)c21 [10728/C05]	-21.7
O=C1Nc2ccc(S(=O)(=O)N3CCOCC3)cc2C1=Cc1cc(Cl)cc(Br)c1O [10727/F04]	15.3
Cc1[nH]c(C=C2C(=O)Nc3ccc(CCCl)cc32)c(Br)c1Br [10717/G11]	16.4
CCc1cc(CC)c(C=C2C(=O)Nc3ccc(S(=O)(=O)N4CCOCC4)cc32)[nH]1 [10727/F03]	8.9
O=C1Nc2ccc(S(=O)(=O)Nc3ccc(C(F)(F)F)cc3)cc2C1=Cc1coc2ccccc2c1=O [10727/E07]	20.1
CCc1cc(CC)c(C=C2C(=O)Nc3ccc(CCCl)cc32)[nH]1 [10727/G03]	-3.5
O=C1Nc2ccc(S(=O)(=O)N3CCOCC3)cc2C1=Cc1coc2ccccc2c1=O [10727/F07]	21.4
COc1cc(C=C2C(=O)Nc3ccc(Br)c(C)c32)cc(OC)c1 [10728/C04]	-0.0
O=C1Nc2ccc(S(=O)(=O)N3CCOCC3)cc2C1=Cc1cc(O)ccc1O [10727/F10]	15.9
O=C1Nc2ccc(I)cc2C1=Cc1cccc(C(F)(F)F)c1F [10728/B07]	31.4
CCN(CC)c1ccc(C=C2C(=O)Nc3ccc(CCCl)cc32)cc1 [10727/G02]	7.1
O=C1Nc2c(Br)cc(Br)cc2C1=Cc1cc(C(F)(F)F)ccc1F [10728/A08]	-1.4
COc1cccc(C=C2C(=O)Nc3ccc(S(=O)(=O)Nc4ccc(C(F)(F)F)cc4)cc32)c1OC [10727/E11]	37.3
Cc1c(Br)ccc2c1C(=Cc1ccc3c(c1)Cc1ccccc1-3)C(=O)N2 [10728/C06]	8.4
COc1ccc(OC)c(C=C2C(=O)Nc3ccc(Br)c(C)c32)c1 [10728/C02]	-32.1
COc1cc(C=C2C(=O)Nc3ccc(I)cc32)cc2c1OCO2 [10728/B11]	-1.0
COc1cccc(OC)c1C=C1C(=O)Nc2ccc(I)cc21 [10728/B03]	-1.3
CNS(=O)(=O)c1ccc2c(c1)C(=Cc1ccccc1Sc1ccc(Cl)cc1)C(=O)N2 [10727/D05]	8.5
COc1cc(N(C)C)ccc1C=C1C(=O)Nc2ccc(I)cc21 [10728/B05]	-12.3
O=C1Nc2ccc(S(=O)(=O)Nc3ccc(C(F)(F)F)cc3)cc2C1=Cc1cc(Cl)cc(Br)c1O [10727/E04]	46.1

Compound	Fik Kinase %Inhibition [%]
COc1cc(C=C2C(=O)Nc3ccc(I)cc32)cc(OC)c1 [10728/B04]	-6.0
CNS(=O)(=O)c1ccc2c(c1)C(=Cc1cc(OC)ccc1OC)C(=O)N2 [10728/D02]	-0.3
O=C1Nc2ccc(CCCl)cc2C1=Cc1coc2ccccc2c1=O [10727/G07]	7.2
Cc1c(Br)ccc2c1C(=Cc1ccccc1OCC(=O)O)C(=O)N2 [10728/C10]	6.1
O=C1Nc2ccc(CCCl)cc2C1=Cc1cc(O)ccc1O [10727/G10]	-5.6
N#Cc1cccc(C=C2C(=O)Nc3ccc(CCCl)cc32)c1 [10727/G08]	15.7
CNS(=O)(=O)c1ccc2c(c1)C(=Cc1cccc(C#N)c1)C(=O)N2 [10727/D08]	14.1
COc1cc(C=C2C(=O)Nc3c(Br)cc(Br)cc32)cc(OC)c1 [10728/A04]	-3.5
O=C1Nc2ccc(S(=O)(=O)Nc3ccc(C(F)(F)F)cc3)cc2C1=Cc1ccccc1Sc1ccc(Cl)cc1 [10727/E05]	17.1
CCN(CC)c1ccc(C=C2C(=O)Nc3ccc(S(=O)(=O)Nc4ccc(C(F)(F)F)cc4)cc32)cc1 [10727/E02]	9.3
O=C1Nc2ccc(S(=O)(=O)Nc3ccc(C(F)(F)F)cc3)cc2C1=Cc1cc(O)ccc1O [10727/E10]	9.7
N#Cc1ccc(C=C2C(=O)Nc3ccc(CCCl)cc32)cc1 [10727/G09]	5.7
Cc1c(Br)ccc2c1C(=Cc1cc(C(F)(F)F)ccc1F)C(=O)N2 [10728/C08]	-2.2
O=C1Nc2ccc(S(=O)(=O)Nc3ccc(C(F)(F)F)cc3)cc2C1=Cc1cc2c(cc1Cl)OCO2 [10727/E06]	14.2
O=C1Nc2c(Br)cc(Br)cc2C1=Cc1ccc2ccccc2c1O [10718/A04]	6.9
COc1cccc(OC)c1C=C1C(=O)Nc2c(Br)cc(Br)cc21 [10728/A03]	-7.3
CCOC(=O)CCc1c(C(=O)OCC)[nH]c(C=C2C(=O)Nc3c(Br)cc(Br)cc32)c1CC(=O)OCC [10718/A05]	3.2
O=C1Nc2ccc(S(=O)(=O)N3CCOCC3)cc2C1=Cc1cc2c(cc1Cl)OCO2 [10727/F06]	14.5
CNS(=O)(=O)c1ccc2c(c1)C(=Cc1ccc3c(c1)Cc1ccccc1-3)C(=O)N2 [10728/D06]	10.4
CCOC(=O)c1c(C)[nH]c(C=C2C(=O)Nc3c(Br)cc(Br)cc32)c1C [10718/A02]	3.0
O=C1Nc2ccc(S(=O)(=O)N3CCOCC3)cc2C1=Cc1ccccc1Sc1ccc(Cl)cc1 [10727/F05]	21.8
N#Cc1cccc(C=C2C(=O)Nc3ccc(S(=O)(=O)N4CCOCC4)cc32)c1 [10727/F08]	12.5
COc1cc(C=C2C(=O)Nc3ccc(Br)c(C)c32)cc2c1OCO2 [10728/C11]	-10.1
Cc1c(Br)ccc2c1C(=Cc1cccc(C(F)(F)F)c1F)C(=O)N2 [10728/C07]	-7.2
